ChEMBL document CHEMBL3400085, “New cytochalasins from medicinal macrofungus Crodyceps taii and their inhibitory activities against human cancer cells” (Bioorg Med Chem Lett, 2015)

Columns and labels:
MRC5 = assay: Cytotoxicity against human MRC5 cells assessed as inhibition of proliferation by SRB method; format: cell-based
A549 = assay: Cytotoxicity against human A549 cells assessed as inhibition of proliferation by SRB method; format: functional, cell-based
[1] = Cytotoxicity against human 95-D cells assessed as inhibition of proliferation by SRB method; format: functional, cell-based
[2] = Cytotoxicity against human HL-7702 cells assessed as inhibition of proliferation by SRB method; format: functional, cell-based; conditions: L02

Structure (SMILES) | IC50 (MRC5) [µM] | IC50 (A549) [µM] | IC50 [1] [µM] | IC50 [2] [µM]
C=C1[C@@H](C)[C@H]2[C@H](Cc3ccccc3)NC(=O)[C@]23[C@H](O)/C=C/[C@@](C)(O)C(=O)[C@@H](C)C/C=C/[C@H]3[C@@H]1O [ZYGOSPORIN D] | > 200 | 16.7 | 4.04 | 30.2
CC1=C[C@@H]2/C=C/C[C@H](C)C(=O)[C@](C)(O)/C=C/[C@@H](O)[C@]23C(=O)N[C@@H](Cc2ccccc2)[C@@H]3[C@H]1C | > 200 | 19.9 | 20.7 | 30.9
CC1=C(C)[C@H]2[C@H](Cc3ccccc3)NC(=O)[C@]23[C@H](O)/C=C/[C@@](C)(O)C(=O)[C@@H](C)C/C=C/[C@H]3[C@@H]1O [DEACETYLCYTOCHALASIN C] | > 200 | 13.6 | 3.67 | 31.1
CC1=C(C)[C@H]2[C@H](Cc3ccccc3)NC(=O)[C@]23[C@H](O)/C=C/[C@H](C)C(=O)[C@@H](C)C/C=C/[C@H]3[C@@H]1O | > 200 | 17.1 | 26 | 35.7
CC1=C(C)[C@H]2[C@H](Cc3ccccc3)NC(=O)[C@]23[C@H](O)/C=C/[C@H](C)C(=O)[C@@H](C)C/C=C/[C@H]3C1=O | > 200 | 32.3 | 23.7 | 29.8
